In ChEMBL document CHEMBL1201862, “PubChem BioAssay data set” (2004):
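Interpolation was linear, between the two tested concentrations surrounding the appropriate level; five concentrations were tested over 48 hours in 96-well plates. GI50 is the concentration that inhibits growth by half.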 Active and inactive are the calls of the source. No stated cut-off is given here; in the data, active = GI50 up to about 1.1 µM and inactive = higher.

Key:
Experiment in all cases: NCI-60 cell line screen, 48 h
XF498 = tested on: XF498
SF-295 = tested on: SF-295
SK-MEL-5 = tested on: SK-MEL-5
HOP-62 = tested on: HOP-62
DLD-1 = tested on: DLD-1
KM12 = tested on: KM12
UACC-257 = tested on: UACC-257
UO-31 = tested on: UO-31
OVCAR-8 = tested on: OVCAR-8
U-251 = tested on: U-251
SF-268 = tested on: SF-268
K562 = tested on: K562
RXF 631 = tested on: RXF 631
OVCAR-3 = tested on: OVCAR-3
HCC 2998 = tested on: HCC 2998
SK-MEL-2 = tested on: SK-MEL-2
CCRF-CEM = tested on: CCRF-CEM
DMS-114 = tested on: DMS-114
RXF 393 = tested on: RXF 393
HOP-92 = tested on: HOP-92
COLO 205 = tested on: COLO 205
DMS-273 = tested on: DMS-273
M19-MEL = tested on: M19-MEL
MOLT-4 = tested on: MOLT-4
UACC-62 = tested on: UACC-62
IGROV-1 = tested on: IGROV-1
SF-539 = tested on: SF-539
KM-20L2 = tested on: KM-20L2
HL-60 = tested on: HL-60
SNB-75 = tested on: SNB-75
LXFL 529 = tested on: LXFL 529
786-0 = tested on: 786-0
NCI-H23 = tested on: NCI-H23
ACHN = tested on: ACHN
HCT-116 = tested on: HCT-116
SW-620 = tested on: SW-620
RPMI-8226 = tested on: RPMI-8226
SNB-19 = tested on: SNB-19
TK-10 = tested on: TK-10
OVCAR-4 = tested on: OVCAR-4
OVCAR-5 = tested on: OVCAR-5
SN12C = tested on: SN12C
Malme-3M = tested on: Malme-3M
SK-MEL-28 = tested on: SK-MEL-28
NCI-H522 = tested on: NCI-H522
A549 = tested on: A549
M14 = tested on: M14
HT-29 = tested on: HT-29
EKVX = tested on: EKVX
HCT-15 = tested on: HCT-15
NCI-H460 = tested on: NCI-H460
LOX IMVI = tested on: LOX IMVI
CAKI-1 = tested on: CAKI-1
HOP-18 = tested on: HOP-18
NCI-H226 = tested on: NCI-H226
SNB-78 = tested on: SNB-78
SK-OV-3 = tested on: SK-OV-3
A498 = tested on: A498

N#Cc1cccc(C2C(=O)c3ccc(C(=O)c4ccc5c(c4)C(=O)N(c4ccc(Oc6ccc(N7C(=O)c8ccc(C(=O)c9ccc%10c(c9)C(=O)N(c9cccc(C#N)c9)C%10=O)cc8C7=O)cc6)cc4)C5=O)cc3C2=O)c1 (stereo not drawn)
GI50 (XF498): > 100 µM (inactive) | GI50 (SF-295): > 100 µM (inactive) | GI50 (SK-MEL-5): > 100 µM (inactive) | GI50 (HOP-62): > 100 µM (inactive) | GI50 (DLD-1): > 100 µM (inactive) | GI50 (KM12): > 100 µM (inactive) | GI50 (UACC-257): > 100 µM (inactive) | GI50 (UO-31): > 100 µM (inactive) | GI50 (OVCAR-8): > 100 µM (inactive) | GI50 (U-251): > 100 µM (inactive) | GI50 (SF-268): > 100 µM (inactive) | GI50 (K562): > 100 µM (inactive) | GI50 (RXF 631): > 100 µM (inactive) | GI50 (OVCAR-3): > 100 µM (inactive) | GI50 (HCC 2998): > 100 µM (inactive) | GI50 (SK-MEL-2): > 100 µM (inactive) | GI50 (CCRF-CEM): > 100 µM (inactive) | GI50 (DMS-114): > 100 µM (inactive) | GI50 (RXF 393): > 100 µM (inactive) | GI50 (HOP-92): > 100 µM (inactive) | GI50 (COLO 205): > 100 µM (inactive) | GI50 (DMS-273): > 100 µM (inactive) | GI50 (M19-MEL): > 100 µM (inactive) | GI50 (MOLT-4): > 100 µM (inactive) | GI50 (UACC-62): > 100 µM (inactive) | GI50 (IGROV-1): > 100 µM (inactive) | GI50 (SF-539): > 100 µM (inactive) | GI50 (KM-20L2): > 100 µM (inactive) | GI50 (HL-60): > 100 µM (inactive) | GI50 (SNB-75): > 100 µM (inactive) | GI50 (LXFL 529): > 100 µM (inactive) | GI50 (786-0): > 100 µM (inactive) | GI50 (NCI-H23): > 100 µM (inactive) | GI50 (ACHN): > 100 µM (inactive) | GI50 (HCT-116): > 100 µM (inactive) | GI50 (SW-620): > 100 µM (inactive) | GI50 (RPMI-8226): > 100 µM (inactive) | GI50 (SNB-19): 82.2 µM (inactive) | GI50 (TK-10): 40.2 µM (inactive) | GI50 (OVCAR-4): > 100 µM (inactive) | GI50 (OVCAR-5): > 100 µM (inactive) | GI50 (SN12C): > 100 µM (inactive) | GI50 (Malme-3M): > 100 µM (inactive) | GI50 (SK-MEL-28): > 100 µM (inactive) | GI50 (NCI-H522): > 100 µM (inactive) | GI50 (A549): > 100 µM (inactive) | GI50 (M14): > 100 µM (inactive) | GI50 (HT-29): > 100 µM (inactive) | GI50 (EKVX): > 100 µM (inactive) | GI50 (HCT-15): > 100 µM | GI50 (NCI-H460): > 100 µM (inactive)

CC(=O)O/N=C(/C)c1ccccc1O
GI50 (XF498): > 100 µM (inactive) | GI50 (SF-295): > 100 µM (inactive) | GI50 (HOP-62): > 100 µM (inactive) | GI50 (DLD-1): > 100 µM (inactive) | GI50 (LOX IMVI): > 100 µM (inactive) | GI50 (KM12): > 100 µM (inactive) | GI50 (UACC-257): > 100 µM (inactive) | GI50 (UO-31): > 100 µM (inactive) | GI50 (OVCAR-8): > 100 µM (inactive) | GI50 (U-251): > 100 µM (inactive) | GI50 (SF-268): > 100 µM (inactive) | GI50 (K562): > 100 µM (inactive) | GI50 (OVCAR-3): > 100 µM (inactive) | GI50 (HCC 2998): > 100 µM (inactive) | GI50 (SK-MEL-2): > 100 µM (inactive) | GI50 (CCRF-CEM): > 100 µM (inactive) | GI50 (CAKI-1): > 100 µM (inactive) | GI50 (DMS-114): > 100 µM (inactive) | GI50 (RXF 393): > 100 µM (inactive) | GI50 (COLO 205): > 100 µM (inactive) | GI50 (DMS-273): > 100 µM (inactive) | GI50 (M19-MEL): > 100 µM (inactive) | GI50 (MOLT-4): > 100 µM (inactive) | GI50 (UACC-62): > 100 µM (inactive) | GI50 (IGROV-1): > 100 µM (inactive) | GI50 (SF-539): > 100 µM (inactive) | GI50 (KM-20L2): > 100 µM (inactive) | GI50 (HL-60): > 100 µM (inactive) | GI50 (SNB-75): > 100 µM (inactive) | GI50 (LXFL 529): > 100 µM (inactive) | GI50 (786-0): > 100 µM (inactive) | GI50 (NCI-H23): > 100 µM (inactive) | GI50 (ACHN): > 100 µM (inactive) | GI50 (HCT-116): > 100 µM (inactive) | GI50 (HOP-18): > 100 µM (inactive) | GI50 (SW-620): > 100 µM (inactive) | GI50 (RPMI-8226): > 100 µM (inactive) | GI50 (SNB-19): > 100 µM (inactive) | GI50 (TK-10): > 100 µM (inactive) | GI50 (OVCAR-4): > 100 µM (inactive) | GI50 (OVCAR-5): > 100 µM (inactive) | GI50 (SN12C): > 100 µM (inactive) | GI50 (Malme-3M): > 100 µM (inactive) | GI50 (SK-MEL-28): > 100 µM (inactive) | GI50 (NCI-H522): > 100 µM (inactive) | GI50 (A549): > 100 µM (inactive) | GI50 (M14): > 100 µM (inactive) | GI50 (HT-29): > 100 µM (inactive) | GI50 (NCI-H226): > 100 µM (inactive) | GI50 (EKVX): > 100 µM (inactive) | GI50 (SNB-78): > 100 µM (inactive) | GI50 (SK-OV-3): > 100 µM (inactive) | GI50 (NCI-H460): > 100 µM (inactive)

Cc1c(C#N)c(=O)[nH]c(=O)n1CCN1CCN(C(=O)NCCCCCCNC(=O)N2CCN(CCn3c(C)c(C#N)c(=O)[nH]c3=O)CC2)CC1
GI50 (XF498): > 100 µM (inactive) | GI50 (SF-295): > 100 µM (inactive) | GI50 (SK-MEL-5): > 100 µM (inactive) | GI50 (HOP-62): > 100 µM (inactive) | GI50 (DLD-1): > 100 µM (inactive) | GI50 (LOX IMVI): > 100 µM (inactive) | GI50 (UACC-257): > 100 µM (inactive) | GI50 (OVCAR-8): > 100 µM (inactive) | GI50 (U-251): > 100 µM (inactive) | GI50 (K562): > 100 µM (inactive) | GI50 (OVCAR-3): > 100 µM (inactive) | GI50 (HCC 2998): > 100 µM (inactive) | GI50 (CCRF-CEM): > 100 µM (inactive) | GI50 (CAKI-1): > 100 µM (inactive) | GI50 (DMS-114): > 100 µM (inactive) | GI50 (RXF 393): > 100 µM (inactive) | GI50 (HOP-92): > 100 µM (inactive) | GI50 (COLO 205): > 100 µM (inactive) | GI50 (DMS-273): > 100 µM (inactive) | GI50 (M19-MEL): > 100 µM (inactive) | GI50 (MOLT-4): > 100 µM (inactive) | GI50 (UACC-62): > 100 µM (inactive) | GI50 (IGROV-1): > 100 µM (inactive) | GI50 (SF-539): > 100 µM (inactive) | GI50 (KM-20L2): > 100 µM (inactive) | GI50 (HL-60): > 100 µM (inactive) | GI50 (SNB-75): > 100 µM (inactive) | GI50 (LXFL 529): > 100 µM (inactive) | GI50 (786-0): > 100 µM (inactive) | GI50 (NCI-H23): > 100 µM (inactive) | GI50 (ACHN): > 100 µM (inactive) | GI50 (HCT-116): > 100 µM (inactive) | GI50 (HOP-18): > 100 µM (inactive) | GI50 (SW-620): > 100 µM (inactive) | GI50 (RPMI-8226): > 100 µM (inactive) | GI50 (SNB-19): > 100 µM (inactive) | GI50 (TK-10): > 100 µM (inactive) | GI50 (OVCAR-4): > 100 µM (inactive) | GI50 (SN12C): > 100 µM (inactive) | GI50 (SK-MEL-28): > 100 µM (inactive) | GI50 (A498): > 100 µM (inactive) | GI50 (A549): > 100 µM (inactive) | GI50 (M14): > 100 µM (inactive) | GI50 (HT-29): > 100 µM (inactive) | GI50 (EKVX): > 100 µM (inactive) | GI50 (SNB-78): > 100 µM (inactive) | GI50 (SK-OV-3): > 100 µM (inactive) | GI50 (HCT-15): > 100 µM | GI50 (NCI-H460): > 100 µM (inactive)
